Source: patent US12195427B2, “MASP-2 inhibitors and methods of use” (priority 2018, dated 2025)

Biological target: MASP-2 CCP2-SP (Homo sapiens (Human), UniProt O00187)
Experiment: MASP-2 co-crystallization, X-ray crystallography and structure analysis (H-bonds, van der Waals contacts);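 as to Ligand-pharmacophore element distance, pharmacophore element C2: distance from averaged pharmacophore element to bound ligand; missing value means element absent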;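 as to Ligand-pharmacophore element distance, pharmacophore element C3: distance from averaged pharmacophore element to bound ligand; missing value means element absent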;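 as to Ligand-pharmacophore element distance, pharmacophore element C4: distance from averaged pharmacophore element to bound ligand; missing value means element absent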;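 as to Ligand-pharmacophore element distance, pharmacophore element C5: distance from averaged pharmacophore element to bound ligand; missing value means element absent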
Set-up: van der Waals contact distance, MASP-2 HIS 483 atom CD2 / van der Waals contact distance, MASP-2 HIS 483 atom NE2 / van der Waals contact distance, SER 654 C to compound atom / van der Waals contact distance, SER 654 O to compound atom / van der Waals contact distance, TRP 655 C to compound atom / van der Waals contact distance, MASP-2 GLY 528 atom CA / van der Waals contact distance TRP 655 atom CZ3 / van der Waals contact distance TRP 655 atom N / van der Waals contact distance TRP 655 atom CE3 / van der Waals contact distance GLY 656 atom C / van der Waals contact distance GLY 656 atom CA / van der Waals contact distance GLY 656 atom O / van der Waals contact distance, MASP-2 TYR 607 atom CD1 / van der Waals contact distance, MASP-2 PRO 606 atom O / d(C3,CA1) / d(CA1,N1)2 / d(H4,O1) / d(H4,O2) / d(O1,O2) / d(CA1,O2) / d(CA6,O1) / d(CA6,O2) / d(CA1,C5) / d(O2,H3) / d(N2,C2) / d(CA5,N2) / d(N2,C4) / d(N2,C6) / d(N2,CA3) / d(N2,O3) / d(O4,H2): unit not given beside the values
Conditions: for Ligand-pharmacophore element distance, pharmacophore element C2 / Ligand-pharmacophore element distance, pharmacophore element C3 / Ligand-pharmacophore element distance, pharmacophore element C4 / Ligand-pharmacophore element distance, pharmacophore element C5 / Ligand-pharmacophore element distance, pharmacophore element C6 / Ligand-pharmacophore element distance, pharmacophore element C7 / Ligand-pharmacophore element distance, pharmacophore element CA1 / Ligand-pharmacophore element distance, pharmacophore element CA2 / Ligand-pharmacophore element distance, pharmacophore element CA3 / Ligand-pharmacophore element distance, pharmacophore element CA4 / Ligand-pharmacophore element distance, pharmacophore element CA5 / Ligand-pharmacophore element distance, pharmacophore element CA6: Table A4-1; for H-bond distance to MASP-2 ASP 627 atom OD2: ASP 627 OD2; for H-bond distance to MASP-2 SER 628 atom O: SER 628 O; for H-bond distance to MASP-2 GLY 656 atom N: GLY 656 N; for H-bond distance to MASP-2 SER 654 atom O: SER 654 O; for H-bond distance to MASP-2 SER 657 atom O: SER 657 O
From the text: This example illustrates the preparation of recombinant MASP-2 protein, based on UniProt O00187, human mannan-binding lectin serine protease 2. Expression constructs for human MASP-2 CCP2-SP and CCP2-SP-6HIS were generated for recombinant expression in E. coli cells.
Typically, crystallization hits were obtained by screening against […] 96-well crystallization reagent kits (GRAS6, GRAS2, Hampton Research; MORPHEUS, Molecular Dimensions; Wizard 1&2 Cryo, Rigaku Reagents) and crystal growth was inspected by optical microscopy. Crystals were used directly or further optimized for X-ray diffraction. Crystals were captured with cryogenic loops and dipped into liquid nitrogen directly or cryoprotected with a 20% glycerol in crystallization formulation before flash-cooling in liquid nitrogen.
Thereafter crystals are transferred once or twice for soaking within the crystallization solution containing the MASP-2 inhibitor.
Crystals were diffracted with synchrotron X-rays of […] and X-ray diffraction datasets were collected at beamlines SSRL BL9-2, BL14-1, BL12-2 as well as ALS sector 5 using Dectris Pilatus and Eiger detectors. Structures were determined by molecular replacement using portions of the structure 1Q3X as search models and partially refined with Buster 2.10.2 or Refmac 5.8. […] When multiple ligand poses were observed, for instance arising from multiple molecules in the asymmetric unit or refined dual poses within the same molecule, only one pose was selected and analyzed.
LigPlot+ calls these ‘nonbonded contacts’ or ‘hydrophobic contacts’. Despite the name, there are atom pairings that include possible H-bonds. Thus, in some instances, the Table A2 also contains H-bond interactions.

[1] = Table A5-1 pharmacophore: distance between elements, S2/S1 region
[2] = Table A5-2 pharmacophore distance, S3/S4 region
[3] = Table A7-2, between pharmacophore elements of the bound compound
[4] = Table A7-1, between pharmacophore elements of the bound compound
[5] = Table A8-6, nearest protein atom in cell to the left

Chain of MASP-2 CCP2-SP (O00187 445-686): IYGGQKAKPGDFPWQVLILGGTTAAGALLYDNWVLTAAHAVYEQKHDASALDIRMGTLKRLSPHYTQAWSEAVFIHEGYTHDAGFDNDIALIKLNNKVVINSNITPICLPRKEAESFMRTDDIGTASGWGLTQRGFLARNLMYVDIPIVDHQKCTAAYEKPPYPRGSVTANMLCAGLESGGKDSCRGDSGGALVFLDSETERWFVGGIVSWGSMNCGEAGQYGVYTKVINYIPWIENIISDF
Chain of MASP-2 CCP2-SP (O00187 364-432 partner): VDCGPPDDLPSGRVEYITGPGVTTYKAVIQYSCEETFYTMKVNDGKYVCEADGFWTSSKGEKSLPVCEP

CC(NC(=O)C1CC(Cc2ccccc2)CN1)C(=O)NCc1cnc2c(c1)c(Cl)cn2C.Cl.Cl (mixture of isomers) [1450_A]
Ligand-pharmacophore element distance, pharmacophore element C2: 0
Ligand-pharmacophore element distance, pharmacophore element C3: 0
Ligand-pharmacophore element distance, pharmacophore element C4: 0
Ligand-pharmacophore element distance, pharmacophore element C5: 0.34
Ligand-pharmacophore element distance, pharmacophore element C6: 0
Ligand-pharmacophore element distance, pharmacophore element C7: 0.72
Ligand-pharmacophore element distance, pharmacophore element CA1: 1.03
Ligand-pharmacophore element distance, pharmacophore element CA2: 0.4
Ligand-pharmacophore element distance, pharmacophore element CA3: 0
Ligand-pharmacophore element distance, pharmacophore element CA4: 0
Ligand-pharmacophore element distance, pharmacophore element CA5: 0
Ligand-pharmacophore element distance, pharmacophore element CA6: 0
d(CA1,C5) [1]: 3.55
d(CA1,O1) [1]: 5.47
d(CA1,O2) [1]: 4.73
d(CA1,O4) [1]: 1.75
d(H4,O1) [1]: 3.16
d(H4,O2) [1]: 3.57
d(O1,O2) [1]: 3.11
d(N2,CA2) [2]: 5.88
d(O2,H3) [2]: 2.31
d(O2,N2) [2]: 2.81
a(C5, CA1, O1) (Table A6-1 pharmacophore angle): 150.97
a(CA1, O1, O2) (Table A6-1 pharmacophore angle): 94.14
a(O1, CA1, C7) (Table A6-1 pharmacophore angle): 136.18
a(O1, CA1, O4) (Table A6-1 pharmacophore angle): 68.80
a(O1, O2, H4) (Table A6-1 pharmacophore angle): 125.38
a(O1, O2, H3) (Table A6-2 pharmacophore angle): 127.40
a(O1, O2, N2) (Table A6-2 pharmacophore angle): 139.62
a(O2, N2, CA2) (Table A6-2 pharmacophore angle): 154.51
Pharmacophore torsion angle a(O1, O2, N2, CA2) [3]: 120.74

C[C@H](NC(=O)[C@H]1C[C@@H](c2ccccc2)CCN1)C(=O)NCc1ccc(N)nc1 (stereo in doubt) [compound 1025]
H-bond distance to MASP-2 ASP 627 atom OD2 (Table A1 (H-Bonds)): 3.11
H-bond distance to MASP-2 SER 628 atom O (Table A1 (H-Bonds)): 2.38
van der Waals contact distance, MASP-2 HIS 483 atom CD2 (Table A2-1): 3.68
van der Waals contact distance, MASP-2 HIS 483 atom CE1 (Table A2-1): 3.81
van der Waals contact distance, MASP-2 PHE 529 atom CZ (Table A2-3): 3.88
van der Waals contact distance, SER 654 O to compound atom (Table A2-12): 3.51
van der Waals contact distance, TRP 655 CA to compound atom (Table A2-12): 3.68
van der Waals contact distance, MASP-2 amino acid atom to compound atom (Table A2 section before Table A2-8): 3.84

C[C@H](NC(=O)C1C[C@@H](c2ccccc2)CCN1)C(=O)NCc1ccc(C(=N)N)cc1 (stereo in doubt) [compound 1063]
H-bond distance to MASP-2 GLY 656 atom N (Table A1 (H-Bonds)): 3.25
H-bond distance to MASP-2 SER 628 atom O (Table A1 (H-Bonds)): 2.93
H-bond distance to MASP-2 SER 654 atom O (Table A1 (H-Bonds)): 2.94
H-bond distance to MASP-2 SER 657 atom O (Table A1 (H-Bonds)): 2.83
van der Waals contact distance, MASP-2 PHE 529 atom CD1 (Table A2-3): 3.71
van der Waals contact distance, MASP-2 amino acid atom to compound atom (Table A2-5: TYR 607 (CE1, CE2, OH), PRO 608 (CD, CG), SER 611 (CA)): 3.85
van der Waals contact distance GLY 656 atom C (Table A2-13, MASP-2 GLY 656 C): 3.36
van der Waals contact distance TRP 655 atom O (Table A2-13, MASP-2 TRP 655 O): 3.84
van der Waals contact distance SER 657 atom C (Table A2-14, MASP-2 SER 657 C, columns c12-c13 (inferred)): 3.75
Ligand-pharmacophore element distance, pharmacophore element C2: 0.48
Ligand-pharmacophore element distance, pharmacophore element C3: 0
Ligand-pharmacophore element distance, pharmacophore element C4: 0
Ligand-pharmacophore element distance, pharmacophore element C5: 0
Ligand-pharmacophore element distance, pharmacophore element C6: 0
Ligand-pharmacophore element distance, pharmacophore element C7: 0
Ligand-pharmacophore element distance, pharmacophore element CA1: 0.3
Ligand-pharmacophore element distance, pharmacophore element CA2: 0.85
Ligand-pharmacophore element distance, pharmacophore element CA3: 0
Ligand-pharmacophore element distance, pharmacophore element CA4: 0
Ligand-pharmacophore element distance, pharmacophore element CA5: 0
Ligand-pharmacophore element distance, pharmacophore element CA6: 0
d(CA1,N1) [1]: 3.56
d(CA1,O1) [1]: 4.95
d(CA1,O2) [1]: 3.58
d(H4,O1) [1]: 5.37
d(H4,O2) [1]: 3.82
d(O1,O2) [1]: 3.31
d(N2,C2) [2]: 1.38
d(N2,CA2) [2]: 5.62
d(O2,H3) [2]: 4.92
d(O2,N2) [2]: 3.36
a(CA1, O1, O2) (Table A6-1 pharmacophore angle): 88.32
a(O1, O2, H4) (Table A6-1 pharmacophore angle): 142.43
A(N1, CA1, O1) a) (Table A6-1 pharmacophore angle, all compounds with protonatable center N1 except Methyl-amino-pyridine): 167.99
a(O1, O2, H3) (Table A6-2 pharmacophore angle): 157.64
a(O1, O2, N2) (Table A6-2 pharmacophore angle): 139.49
a(O2, N2, C2) (Table A6-2 pharmacophore angle): 118.75
a(O2, N2, CA2) (Table A6-2 pharmacophore angle): 154.05
Pharmacophore torsion angle a(H4, O1, O2, H3) [4]: 54.13
Pharmacophore torsion angle a(H4, O1, O2, N2) [4]: 155.02
Pharmacophore torsion angle a(N1, CA1, O2, H4) [4]: −130.71
Pharmacophore torsion angle a(O1, H4, O2, CA1) [4]: −74.94
Pharmacophore torsion angle a(O1, O2, N2, C2) [4]: 150.29
Pharmacophore protein distance to MET_658 (first MET_658 column) (Table A8-6, 6th residue column, nearest protein atom in cell to the left): 1.74
Pharmacophore protein distance to MET_658 (second MET_658 column) (Table A8-6, 9th residue column, nearest protein atom in cell to the left): 2.75
Pharmacophore protein distance to GLY_528 [5]: 3.37
Pharmacophore protein distance to PHE_529 [5]: 3.00
Pharmacophore protein distance to PRO_608 [5]: 4.92
Pharmacophore protein distance to SER_611 [5]: 3.00
Pharmacophore protein distance to TRP_655 (Table A8-6, pharmacophore elements C6, CA3, O3, H1, nearest protein atom in cell to the left): 3.73

Cc1nc(N)ccc1CNC(=O)C(C)NC(=O)[C@H]1C[C@H](c2cccc(-c3ccccc3)c2)CN1 (stereo in doubt) [compound 1360, (2R,4R)-4-([1,1′-Biphenyl]-3-yl)-N—((R)-1-(((6-amino-2-methylpyridin-3-yl)methyl)amino)-1-oxopropan-2-yl)pyrrolidine-2-carboxamide]
H-bond distance to MASP-2 ASP 627 atom OD2 (Table A1 (H-Bonds)): 3.15
H-bond distance to MASP-2 GLY 656 atom N (Table A1 (H-Bonds)): 3.21
H-bond distance to MASP-2 GLY 656 atom O (Table A1 (H-Bonds), GLY 656 O): 2.9
H-bond distance to MASP-2 SER 628 atom O (Table A1 (H-Bonds)): 3.18
H-bond distance to MASP-2 SER 654 atom O (Table A1 (H-Bonds)): 3.04
H-bond distance to MASP-2 SER 657 atom O (Table A1 (H-Bonds)): 2.96
van der Waals contact distance, MASP-2 HIS 483 atom CD2 (Table A2-1): 3.76
van der Waals contact distance, MASP-2 HIS 483 atom NE2 (Table A2-1): 3.69
van der Waals contact distance, MASP-2 PHE 529 atom CE1 (Table A2-3): 3.78
van der Waals contact distance, MASP-2 amino acid atom to compound atom (Table A2-7: SER 628 (CB, O, OG)): 3.61
van der Waals contact distance, TRP 655 CA to compound atom (Table A2-12): 3.44
Ligand-pharmacophore element distance, pharmacophore element C2: 0
Ligand-pharmacophore element distance, pharmacophore element C3: 0.11
Ligand-pharmacophore element distance, pharmacophore element C4: 0
Ligand-pharmacophore element distance, pharmacophore element C5: 0
Ligand-pharmacophore element distance, pharmacophore element C6: 0
Ligand-pharmacophore element distance, pharmacophore element C7: 0
Ligand-pharmacophore element distance, pharmacophore element CA1: 0.57
Ligand-pharmacophore element distance, pharmacophore element CA2: 2.35
Ligand-pharmacophore element distance, pharmacophore element CA3: 0
Ligand-pharmacophore element distance, pharmacophore element CA4: 0
Ligand-pharmacophore element distance, pharmacophore element CA5: 1.11
Ligand-pharmacophore element distance, pharmacophore element CA6: 0
d(C3,CA1) [1]: 2.85
d(CA1,N1)2 [1]: 1.36
d(CA1,O1) [1]: 4.35
d(CA1,O2) [1]: 3.85
d(H4,O1) [1]: 4.38
d(H4,O2) [1]: 3.80
d(O1,O2) [1]: 3.32
d(CA5,N2) [2]: 5.07
d(N2,CA2) [2]: 8.32
d(O2,H3) [2]: 4.32
d(O2,N2) [2]: 2.66
a(C3, CA1, O1) (Table A6-1 pharmacophore angle): 150.18
a(CA1, O1, O2) (Table A6-1 pharmacophore angle): 105.67
a(O1, O2, H4) (Table A6-1 pharmacophore angle): 132.69
a(N1, CA1, O1) b) (Table A6-1 pharmacophore angle, Methyl-amino-pyridine compounds): 174.23
a(O1, O2, H3) (Table A6-2 pharmacophore angle): 147.57
a(O1, O2, N2) (Table A6-2 pharmacophore angle): 138.89
a(O2, N2, CA2) (Table A6-2 pharmacophore angle): 162.09
Pharmacophore torsion angle a(C3, CA1, O1, H4) [4]: 24.01
Pharmacophore torsion angle a(H4, O1, O2, H3) [4]: 51.00
Pharmacophore torsion angle a(H4, O1, O2, N2) [4]: 138.89
Pharmacophore torsion angle a(N1, CA1, O1, H4) [4]: 3.34
Pharmacophore torsion angle a(O1, H4, O2, CA1) [4]: −83.81
Pharmacophore torsion angle a(O1, O2, N2, CA2) [3]: 130.24
Pharmacophore torsion angle a(O1, O2, N2, CA5) [3]: 129.35
